The target in one series is T1, Cytochrome P450 1A2 (Homo sapiens, UniProt P05177).
T1 sequence (P05177 whole entry): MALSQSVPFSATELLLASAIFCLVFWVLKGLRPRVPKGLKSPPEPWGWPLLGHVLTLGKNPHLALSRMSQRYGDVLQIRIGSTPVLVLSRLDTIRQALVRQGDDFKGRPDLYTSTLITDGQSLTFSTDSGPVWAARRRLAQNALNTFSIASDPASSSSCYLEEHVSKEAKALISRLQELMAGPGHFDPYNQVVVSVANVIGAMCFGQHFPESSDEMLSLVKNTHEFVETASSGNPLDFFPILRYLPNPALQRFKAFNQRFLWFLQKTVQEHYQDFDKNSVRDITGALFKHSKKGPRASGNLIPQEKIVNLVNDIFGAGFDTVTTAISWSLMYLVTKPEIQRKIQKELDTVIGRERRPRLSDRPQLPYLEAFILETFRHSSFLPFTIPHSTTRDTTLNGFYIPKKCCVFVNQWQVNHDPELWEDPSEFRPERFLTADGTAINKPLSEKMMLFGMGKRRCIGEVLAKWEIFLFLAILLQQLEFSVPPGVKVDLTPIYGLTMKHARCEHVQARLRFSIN
The experiment in a line: Inhibition of human recombinant CYP1A2. The note with it: for log(1/IC50): human.

Series [1] addresses T2, Cytochrome P450 2D6 (Homo sapiens, UniProt P10635). The experiment in a line: Inhibition of human recombinant CYP2D6. The format is ADME.
The target of series [2] is T3, Cytochrome P450 3A4 (Homo sapiens, UniProt P08684). The experiment in a line: Inhibition of human recombinant CYP3A4 in presence of reduced glutathione. The format is ADME. The note with it: recombinant enzyme.
T3 sequence (P08684 whole entry): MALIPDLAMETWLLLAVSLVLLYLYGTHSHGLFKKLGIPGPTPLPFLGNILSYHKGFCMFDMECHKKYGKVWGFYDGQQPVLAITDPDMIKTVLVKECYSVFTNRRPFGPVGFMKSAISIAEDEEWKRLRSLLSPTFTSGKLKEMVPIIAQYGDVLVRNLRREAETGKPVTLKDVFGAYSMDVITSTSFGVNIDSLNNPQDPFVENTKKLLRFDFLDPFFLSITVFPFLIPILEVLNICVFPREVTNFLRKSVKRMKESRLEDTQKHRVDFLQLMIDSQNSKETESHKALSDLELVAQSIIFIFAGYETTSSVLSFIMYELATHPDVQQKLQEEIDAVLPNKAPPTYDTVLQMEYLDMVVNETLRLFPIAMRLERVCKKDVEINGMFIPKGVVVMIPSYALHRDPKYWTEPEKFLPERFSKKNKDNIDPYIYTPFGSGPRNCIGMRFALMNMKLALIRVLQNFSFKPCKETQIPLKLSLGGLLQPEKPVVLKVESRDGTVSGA
Series [3] has as its target T4, Cytochrome P450 2C9 (Homo sapiens, UniProt P11712). In words: Inhibition of human recombinant CYP2C9 in presence of reduced glutathione. The class given is ADME. The note with it: recombinant enzyme.
For series [4], the target named is T2, Cytochrome P450 2D6. The experiment in a line: Inhibition of human recombinant CYP2D6 in presence of reduced glutathione. The settings on record: recombinant enzyme. The format is ADME.
The target in series [5] is T5, Cytochrome P450 2B6 (Homo sapiens, UniProt P20813).
T5 sequence (P20813 whole entry): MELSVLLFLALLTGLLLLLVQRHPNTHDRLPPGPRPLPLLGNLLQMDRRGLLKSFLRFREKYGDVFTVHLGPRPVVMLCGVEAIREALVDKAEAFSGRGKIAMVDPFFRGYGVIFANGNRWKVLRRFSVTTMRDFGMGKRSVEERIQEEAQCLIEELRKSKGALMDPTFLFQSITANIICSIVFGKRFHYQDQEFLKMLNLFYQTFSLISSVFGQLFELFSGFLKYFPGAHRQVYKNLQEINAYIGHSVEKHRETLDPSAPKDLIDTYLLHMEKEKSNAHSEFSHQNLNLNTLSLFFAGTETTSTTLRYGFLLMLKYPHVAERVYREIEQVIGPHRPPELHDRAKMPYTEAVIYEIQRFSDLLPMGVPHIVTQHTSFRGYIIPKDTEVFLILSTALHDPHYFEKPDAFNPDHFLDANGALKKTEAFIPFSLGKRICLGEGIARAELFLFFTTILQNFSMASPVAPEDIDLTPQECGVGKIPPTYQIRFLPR
The experiment in a line: Inhibition of human recombinant CYP2B6 in presence of reduced glutathione. The note with it: recombinant enzyme. The class given is ADME.

Series [6] addresses T4, Cytochrome P450 2C9. In words: Inhibition of human recombinant CYP2C9. The format is ADME.
In series [7] the target is T3, Cytochrome P450 3A4. In words: Inhibition of human recombinant CYP3A4. The format is ADME.
For series [8], the target named is T5, Cytochrome P450 2B6. The experiment in a line: (§1) Inhibition of human recombinant CYP2B6 at 100 uM. The class given is ADME. The note with it: recombinant enzyme.
Series [9] concerns the target T2, Cytochrome P450 2D6. In words: Inhibition of human recombinant CYP2D6 at 100 uM. The note with it: recombinant enzyme. The format is ADME.
In series [10] the target is T3, Cytochrome P450 3A4. In words: Inhibition of human recombinant CYP3A4 at 100 uM. The settings on record: recombinant enzyme. The format is ADME.
The target in series [11] is T5, Cytochrome P450 2B6. In words: Inhibition of human recombinant CYP2B6. The class given is ADME.
For another series, the target named is T6, CYP2B6 (Homo sapiens, UniProt P20813).
T6 sequence (P20813 whole entry): T5 sequence (P20813 whole entry)
The series is described as §1. The format is ADME.

T4 sequence (P11712 whole entry): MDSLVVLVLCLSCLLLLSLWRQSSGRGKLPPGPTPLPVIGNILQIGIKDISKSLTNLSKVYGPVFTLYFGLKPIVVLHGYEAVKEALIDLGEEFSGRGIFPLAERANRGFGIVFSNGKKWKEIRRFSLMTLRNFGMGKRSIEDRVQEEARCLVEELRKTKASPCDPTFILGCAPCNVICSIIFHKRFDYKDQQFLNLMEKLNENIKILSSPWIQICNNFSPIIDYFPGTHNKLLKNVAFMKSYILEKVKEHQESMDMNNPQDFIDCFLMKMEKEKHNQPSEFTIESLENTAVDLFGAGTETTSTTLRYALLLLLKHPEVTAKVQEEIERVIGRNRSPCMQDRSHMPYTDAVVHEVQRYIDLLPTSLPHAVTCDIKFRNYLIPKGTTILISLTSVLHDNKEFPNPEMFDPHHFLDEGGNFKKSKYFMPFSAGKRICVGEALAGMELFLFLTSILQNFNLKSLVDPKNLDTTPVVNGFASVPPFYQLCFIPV
T2 sequence (P10635 whole entry): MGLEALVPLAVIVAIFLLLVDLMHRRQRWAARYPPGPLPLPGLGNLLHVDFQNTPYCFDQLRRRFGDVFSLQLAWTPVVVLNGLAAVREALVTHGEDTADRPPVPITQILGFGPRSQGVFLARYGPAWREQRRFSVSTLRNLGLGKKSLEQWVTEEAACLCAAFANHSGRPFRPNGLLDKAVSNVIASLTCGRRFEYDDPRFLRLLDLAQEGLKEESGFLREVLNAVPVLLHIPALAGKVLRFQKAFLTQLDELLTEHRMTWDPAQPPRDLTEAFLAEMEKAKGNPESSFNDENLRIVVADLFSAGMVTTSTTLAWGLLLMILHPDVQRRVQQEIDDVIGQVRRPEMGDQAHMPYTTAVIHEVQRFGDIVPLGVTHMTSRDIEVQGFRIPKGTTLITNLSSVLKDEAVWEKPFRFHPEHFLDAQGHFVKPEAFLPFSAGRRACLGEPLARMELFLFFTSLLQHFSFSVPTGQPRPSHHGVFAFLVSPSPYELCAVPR

In the case of `COc1cc(/C=C/C(=O)/C=C/c2ccc(O)c(OC)c2)ccc1O`, the figures for the IC50 on Cytochrome P450 1A2 and at Cytochrome P450 2D6 [1] were 41.5 µM and 0.6 µM, respectively. Besides, at Cytochrome P450 1A2, the “log(1/IC50)” value was determined as 1.382. The Activity entry on Cytochrome P450 3A4 [2], at Cytochrome P450 2C9 [3], at Cytochrome P450 2D6 [4] and at Cytochrome P450 2B6 [5] was “Not Active” each time.
As for `O=C(/C=C/c1ccc(O)cc1)/C=C/c1ccc(O)cc1`, the IC50 on Cytochrome P450 2C9 [6] came to 1.8 µM; at Cytochrome P450 2D6 [1] it was 2 µM. Also, the Activity entry at Cytochrome P450 3A4 [2], at Cytochrome P450 2C9 [3], at Cytochrome P450 2D6 [4] and on Cytochrome P450 2B6 [5] was “Not Active” each time.
With `O=C(/C=C/c1ccccc1)/C=C/c1ccccc1`, the values for the IC50 at Cytochrome P450 2C9 [6] and on Cytochrome P450 2D6 [1] were 67.3 µM and 68.5 µM, respectively. In addition, the Activity result at Cytochrome P450 3A4 [2], at Cytochrome P450 2C9 [3], on Cytochrome P450 2D6 [4] and at Cytochrome P450 2B6 [5] was “Not Active” each time.
Turning to `COc1cc(/C=C2\CC/C(=C\c3ccc(O)c(OC)c3)C2=O)ccc1O`, the IC50 worked out at 2.8 µM on Cytochrome P450 2C9 [6], 38.9 µM on Cytochrome P450 1A2 and 64.9 µM on Cytochrome P450 3A4 [7]. Also, the “log(1/IC50)” value at Cytochrome P450 1A2 (recombinant CYP1A2) is reported as 1.41. The Activity result on Cytochrome P450 3A4 [2], at Cytochrome P450 2C9 [3], at Cytochrome P450 2D6 [4] and at Cytochrome P450 2B6 [5] was “Not Active” in each case.
Turning to `O=C1/C(=C/c2ccc(O)cc2)CC/C1=C\c1ccc(O)cc1`, the IC50 on Cytochrome P450 2C9 [6] was 9.9 µM; at Cytochrome P450 1A2, 45.6 µM; at Cytochrome P450 3A4 [7], 5.1 µM. Further, the “log(1/IC50)” value on Cytochrome P450 1A2 (recombinant CYP1A2) is recorded as 1.341. Further, the Activity result at Cytochrome P450 3A4 [2], at Cytochrome P450 2C9 [3], on Cytochrome P450 2D6 [4] and at Cytochrome P450 2B6 [5] was “Not Active” in each case.
In the case of `O=C1/C(=C/c2ccc(O)cc2)CCC/C1=C\c1ccc(O)cc1`, on Cytochrome P450 2C9 [6], the IC50 came out at 1 µM. The Activity entry at Cytochrome P450 3A4 [2], on Cytochrome P450 2B6 [8], on Cytochrome P450 2D6 [9], at Cytochrome P450 3A4 [10], at Cytochrome P450 2C9 [3] and on Cytochrome P450 2D6 [4] was “Not Active” each time. Besides, on Cytochrome P450 2B6 [5], the Activity result is “Not Active”.
Turning to `CCc1cc(/C=C2\CC/C(=C\c3cc(CC)c(O)c(CC)c3)C2=O)cc(CC)c1O`, the concentration for half-maximal inhibition (IC50) came to 37.7 µM at Cytochrome P450 2C9 [6], 36.7 µM at Cytochrome P450 1A2 and 73.5 µM at Cytochrome P450 3A4 [7]. Besides, the “log(1/IC50)” value on Cytochrome P450 1A2 turned out to be 1.435. For the same compound, the Activity result at Cytochrome P450 3A4 [2], on Cytochrome P450 2C9 [3], on Cytochrome P450 2D6 [4] and on Cytochrome P450 2B6 [5] was “Not Active” each time.
For `CC(C)(C)c1cc(/C=C2\CC/C(=C\c3cc(C(C)(C)C)c(O)c(C(C)(C)C)c3)C2=O)cc(C(C)(C)C)c1O`, the half-maximal inhibitory concentration (IC50) was found to be 55 µM on Cytochrome P450 2C9 [6], 42.8 µM on Cytochrome P450 1A2 and 119 µM at Cytochrome P450 2D6 [1]. The “log(1/IC50)” value at Cytochrome P450 1A2 (recombinant CYP1A2) was determined as 1.369. Besides, the Activity entry on Cytochrome P450 3A4 [2], at Cytochrome P450 2C9 [3], at Cytochrome P450 2D6 [4] and on Cytochrome P450 2B6 [5] was “Not Active” throughout.
Take `COc1cc(/C=C2\CC/C(=C\c3cc(OC)c(O)c(OC)c3)C2=O)cc(OC)c1O`: the IC50 at Cytochrome P450 2B6 [11] worked out at 70 µM; on Cytochrome P450 3A4 [7] it was 38.3 µM. Further, the Activity entry at Cytochrome P450 3A4 [2], on Cytochrome P450 2C9 [3], at Cytochrome P450 2D6 [4] and at Cytochrome P450 2B6 [5] was “Not Active” in each case. Besides, the inhibition at 100 µM on CYP2B6 was over 20%.
In the case of `COc1cc(/C=C/C(=O)CC(=O)/C=C/c2ccc(O)c(OC)c2)ccc1O` [CURCUMIN], the IC50 on Cytochrome P450 1A2 is 40 µM; at Cytochrome P450 2D6 [1], 50.3 µM; at Cytochrome P450 2B6 [11], 24.5 µM; on Cytochrome P450 3A4 [7], 16.3 µM.

What is called IC50 is the concentration that inhibits the measured activity by half. Usually inhibition stands for the percentage by which the read-out fell short of the control.

For the origin of these results see ChEMBL document CHEMBL1141678 (Eur J Med Chem, 2008).
